Reference: PubChem BioAssay AID256 (DTP/NCI, 2004)
Inconclusive results and toxic doses are left out. Rule for the calls: active = survival T/C of 150% or more; inactive = T/C below 125% in these data.

System: CD2F1 mice, L1210 leukemia ip, survival T/C
Assay: NCI In Vivo Anticancer Drug Screen. Data for tumor model L1210 Leukemia (intraperitoneal) in CD2F1 (CDF1) mice
Details: higher = longer survival
Outline: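 Tumor-bearing mice (transplanted tumor) were split into treated and vehicle control groups, and the measured endpoint of each treated group was divided by that of its vehicle controls.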

[1] = endpoint: mean survival time, dose: 100.0 mg/kg/injection, schedule: Q01DX009 (ip), vehicle: saline with Tween-80
[2] = endpoint: mean survival time, dose: 200.0 mg/kg/injection, schedule: Q01DX009 (ip), vehicle: saline with Tween-80
[3] = endpoint: mean survival time, dose: 400.0 mg/kg/injection, schedule: Q01DX009 (ip), vehicle: saline with Tween-80
[4] = endpoint: mean survival time, dose: 100.0 mg/kg/injection, schedule: Q04DX003 (ip), vehicle: saline with Tween-80
[5] = endpoint: mean survival time, dose: 200.0 mg/kg/injection, schedule: Q04DX003 (ip), vehicle: saline with Tween-80
[6] = endpoint: mean survival time, dose: 400.0 mg/kg/injection, schedule: Q04DX003 (ip), vehicle: saline with Tween-80

Measured: T/C

CCCN(CCC)C(=S)[S-].CCCN(CCC)C(=S)[S-].[Zn]
inactive: endpoint: mean survival time, dose: 75.0 mg/kg/injection, schedule: Q04DX003 (ip), vehicle: saline 95 % of control | endpoint: mean survival time, dose: 150.0 mg/kg/injection, schedule: Q04DX003 (ip), vehicle: saline 86 % of control | endpoint: mean survival time, dose: 300.0 mg/kg/injection, schedule: Q04DX003 (ip), vehicle: saline 101 % of control

CCCCS(=O)(=O)OCCCCOS(=O)(=O)CCCC
inactive: endpoint: mean survival time, dose: 100.0 mg/kg/injection, schedule: Q04DX003 (ip), vehicle: saline 96 % of control | endpoint: mean survival time, dose: 200.0 mg/kg/injection, schedule: Q04DX003 (ip), vehicle: saline 95 % of control | endpoint: mean survival time, dose: 400.0 mg/kg/injection, schedule: Q04DX003 (ip), vehicle: saline 101 % of control

O=C(CCNC(=O)OCc1ccccc1)NC(CSCc1ccccc1)C(=O)O (stereo unspecified)
inactive: endpoint: mean survival time, dose: 25.0 mg/kg/injection, schedule: Q01DX005 (ip), vehicle: water 101 % of control | endpoint: mean survival time, dose: 50.0 mg/kg/injection, schedule: Q01DX005 (ip), vehicle: water 106 % of control | endpoint: mean survival time, dose: 100.0 mg/kg/injection, schedule: Q01DX005 (ip), vehicle: water 101 % of control | endpoint: mean survival time, dose: 200.0 mg/kg/injection, schedule: Q01DX005 (ip), vehicle: water 108 % of control

Cc1c(C)c2c(c(C)c1O)CCC(C)(CCCC(C)CCCC(C)CCCC(C)C)O2 (stereo unspecified)
inactive: [1] 101 % of control | [2] 95 % of control | endpoint: mean survival time, dose: 400.0 mg/kg/injection, schedule: Q01DX009 (ip), vehicle: Klucel (hydroxypropylcellulose) (HPC) 98 % of control | [3] 101 % of control | endpoint: mean survival time, dose: 800.0 mg/kg/injection, schedule: Q01DX009 (ip), vehicle: Klucel (hydroxypropylcellulose) (HPC) 96 % of control | endpoint: mean survival time, dose: 1200.0 mg/kg/injection, schedule: Q01DX009 (ip), vehicle: Klucel (hydroxypropylcellulose) (HPC) 96 % of control | endpoint: mean survival time, dose: 1600.0 mg/kg/injection, schedule: Q01DX009 (ip), vehicle: Klucel (hydroxypropylcellulose) (HPC) 90 % of control

CCN(CC)c1cc(C(=O)O)cc(N(CC)CC)n1
inactive: endpoint: median survival time, dose: 6.25 mg/kg/injection, schedule: Q01DX009 (ip), vehicle: other 104 % of control | endpoint: median survival time, dose: 12.5 mg/kg/injection, schedule: Q01DX009 (ip), vehicle: other 107 % of control | endpoint: median survival time, dose: 50.0 mg/kg/injection, schedule: Q01DX005 (ip), vehicle: acid diluted with saline 103 % of control | endpoint: median survival time, dose: 50.0 mg/kg/injection, schedule: Q01DX009 (ip), vehicle: other 108 % of control | endpoint: median survival time, dose: 100.0 mg/kg/injection, schedule: Q01DX005 (ip), vehicle: acid diluted with saline 94 % of control | endpoint: median survival time, dose: 100.0 mg/kg/injection, schedule: Q01DX009 (ip), vehicle: other 121 % of control

N=C(N)Sc1ccccn1
inactive: endpoint: mean survival time, dose: 12.5 mg/kg/injection, schedule: Q01DX009 (ip), vehicle: suspension in saline 98 % of control | endpoint: mean survival time, dose: 25.0 mg/kg/injection, schedule: Q01DX009 (ip), vehicle: suspension in saline 108 % of control | endpoint: mean survival time, dose: 50.0 mg/kg/injection, schedule: Q01DX009 (ip), vehicle: suspension in saline 93 % of control | endpoint: mean survival time, dose: 100.0 mg/kg/injection, schedule: Q01DX009 (ip), vehicle: suspension in saline 93 % of control | endpoint: mean survival time, dose: 200.0 mg/kg/injection, schedule: Q01DX009 (ip), vehicle: suspension in saline 87 % of control | endpoint: mean survival time, dose: 400.0 mg/kg/injection, schedule: Q01DX009 (ip), vehicle: suspension in saline 90 % of control

c1ccc([I+]c2ccccc2)cc1
inactive: endpoint: mean survival time, dose: 0.65 mg/kg/injection, schedule: Q01DX009 (ip), vehicle: saline with Tween-80 98 % of control | endpoint: mean survival time, dose: 1.3 mg/kg/injection, schedule: Q01DX009 (ip), vehicle: saline with Tween-80 98 % of control | endpoint: mean survival time, dose: 2.5 mg/kg/injection, schedule: Q01DX009 (ip), vehicle: saline sonified 103 % of control | endpoint: mean survival time, dose: 2.5 mg/kg/injection, schedule: Q01DX009 (ip), vehicle: saline with Tween-80 98 % of control | endpoint: mean survival time, dose: 2.5 mg/kg/injection, schedule: Q04DX003 (ip), vehicle: saline with Tween-80 95 % of control | endpoint: mean survival time, dose: 5.0 mg/kg/injection, schedule: Q01DX009 (ip), vehicle: saline sonified 94 % of control | endpoint: mean survival time, dose: 5.0 mg/kg/injection, schedule: Q04DX003 (ip), vehicle: saline with Tween-80 104 % of control | endpoint: mean survival time, dose: 5.0 mg/kg/injection, schedule: Q04DX003 (ip), vehicle: saline 98 % of control | endpoint: mean survival time, dose: 10.0 mg/kg/injection, schedule: Q04DX003 (ip), vehicle: saline with Tween-80 103 % of control | endpoint: mean survival time, dose: 10.0 mg/kg/injection, schedule: Q04DX003 (ip), vehicle: saline 97 % of control | endpoint: mean survival time, dose: 20.0 mg/kg/injection, schedule: Q04DX003 (ip), vehicle: saline 115 % of control

C=CC1CCCCC1C=C (stereo unspecified)
inactive: [4] 110 % of control | [5] 102 % of control | [6] 100 % of control

[O-][n+]1ccnc2c1cnn2C1OC(CO)C(O)C1O (stereo unspecified)
inactive: endpoint: mean survival time, dose: 12.5 mg/kg/injection, schedule: Q04DX003 (ip), vehicle: water 104 % of control | endpoint: mean survival time, dose: 25.0 mg/kg/injection, schedule: Q04DX003 (ip), vehicle: water 104 % of control | endpoint: mean survival time, dose: 50.0 mg/kg/injection, schedule: Q04DX003 (ip), vehicle: water 101 % of control | endpoint: mean survival time, dose: 100.0 mg/kg/injection, schedule: Q04DX003 (ip), vehicle: water 101 % of control | endpoint: mean survival time, dose: 200.0 mg/kg/injection, schedule: Q04DX003 (ip), vehicle: water 101 % of control

O=C1/C(=C/c2ccccc2)CCCC1/C=C/c1ccccc1 (stereo unspecified)
inactive: [4] 100 % of control | [5] 100 % of control | [6] 97 % of control

COc1cc(C(=O)CC2CCCCN2)ccc1O (stereo unspecified)
inactive: endpoint: mean survival time, dose: 50.0 mg/kg/injection, schedule: Q01DX Z (ip), vehicle: saline 98 % of control | endpoint: mean survival time, dose: 100.0 mg/kg/injection, schedule: Q01DX Z (ip), vehicle: saline 96 % of control | endpoint: mean survival time, dose: 200.0 mg/kg/injection, schedule: Q01DX Z (ip), vehicle: saline 100 % of control

CCOC(=O)Nc1cccc(C(F)(F)F)c1
inactive: endpoint: mean survival time, dose: 100.0 mg/kg/injection, schedule: Q01DX009 (ip), vehicle: other 97 % of control | endpoint: mean survival time, dose: 200.0 mg/kg/injection, schedule: Q01DX009 (ip), vehicle: other 101 % of control | endpoint: mean survival time, dose: 400.0 mg/kg/injection, schedule: Q01DX009 (ip), vehicle: other 107 % of control

COC(=O)C1C2CCC(C2)C1C (stereo unspecified)
inactive: endpoint: mean survival time, dose: 25.0 mg/kg/injection, schedule: Q01DX009 (ip), vehicle: saline with Tween-80 93 % of control | endpoint: mean survival time, dose: 50.0 mg/kg/injection, schedule: Q01DX009 (ip), vehicle: saline with Tween-80 104 % of control | [1] 98 % of control | [4] 90 % of control

O=[N+]([O-])c1ccc(-c2ccccc2)cc1
inactive: [4] 100 % of control | [5] 96 % of control | [6] 97 % of control

CCCCC1CCCCCCc2[nH]c(/C=C3\N=C(c4ccc[nH]4)C=C3OC)cc21 (stereo unspecified)
inactive: endpoint: mean survival time, dose: 0.12 mg/kg/injection, schedule: Q01DX009 (ip), vehicle: saline with Tween-80 103 % of control | endpoint: mean survival time, dose: 0.25 mg/kg/injection, schedule: Q01DX009 (ip), vehicle: saline with Tween-80 107 % of control | endpoint: mean survival time, dose: 0.5 mg/kg/injection, schedule: Q01DX009 (ip), vehicle: saline with Tween-80 116 % of control | endpoint: mean survival time, dose: 1.0 mg/kg/injection, schedule: Q01DX009 (ip), vehicle: saline with Tween-80 105 % of control | endpoint: mean survival time, dose: 2.0 mg/kg/injection, schedule: Q01DX009 (ip), vehicle: saline with Tween-80 106 % of control

CCC(CC)CN1CCSC1=S
inactive: [1] 101 % of control | [2] 101 % of control | [3] 96 % of control

Cc1ccc([N+](=O)[O-])cc1NC(=O)SCCOC(=O)COc1ccc(Cl)cc1
inactive: [4] 98 % of control | [5] 96 % of control | [6] 98 % of control

COC(=O)c1ccccc1NC(=O)Nc1cccc(OC)c1
inactive: endpoint: mean survival time, dose: 100.0 mg/kg/injection, schedule: Q01DX001 (ip), vehicle: Klucel (hydroxypropylcellulose) (HPC) 95 % of control | endpoint: mean survival time, dose: 200.0 mg/kg/injection, schedule: Q01DX001 (ip), vehicle: Klucel (hydroxypropylcellulose) (HPC) 101 % of control | endpoint: mean survival time, dose: 400.0 mg/kg/injection, schedule: Q01DX001 (ip), vehicle: Klucel (hydroxypropylcellulose) (HPC) 95 % of control

CCOC(=O)c1[nH]c(=S)[nH]c1C(=O)OCC
inactive: endpoint: mean survival time, dose: 100.0 mg/kg/injection, schedule: Q01DX001 (ip), vehicle: saline 100 % of control

CCCCCCCCCCCCN(CN1C(=O)c2ccccc2C1=O)CN1C(=O)c2ccccc2C1=O
inactive: [1] 92 % of control | [3] 86 % of control
